Measured values reported in patent publication US20090209554A1, “Thiazoliums as transketolase inhibitors” (ARRAY BIOPHARMA INC., priority 2004, published 2009).

Assays:
[1] = biological target: T1, transketolase (purified TK apo enzyme) (Homo sapiens, UniProt P29401); experiment: TPK-apoTK coupled cell-free TK inhibition assay (pyrophosphorylated compounds competing with TPP); format: biochemical; details: compound enzymatically pyrophosphorylated by TPK1; 100 nM TK, 20 μM TPP
T1 sequence (P29401 1-623): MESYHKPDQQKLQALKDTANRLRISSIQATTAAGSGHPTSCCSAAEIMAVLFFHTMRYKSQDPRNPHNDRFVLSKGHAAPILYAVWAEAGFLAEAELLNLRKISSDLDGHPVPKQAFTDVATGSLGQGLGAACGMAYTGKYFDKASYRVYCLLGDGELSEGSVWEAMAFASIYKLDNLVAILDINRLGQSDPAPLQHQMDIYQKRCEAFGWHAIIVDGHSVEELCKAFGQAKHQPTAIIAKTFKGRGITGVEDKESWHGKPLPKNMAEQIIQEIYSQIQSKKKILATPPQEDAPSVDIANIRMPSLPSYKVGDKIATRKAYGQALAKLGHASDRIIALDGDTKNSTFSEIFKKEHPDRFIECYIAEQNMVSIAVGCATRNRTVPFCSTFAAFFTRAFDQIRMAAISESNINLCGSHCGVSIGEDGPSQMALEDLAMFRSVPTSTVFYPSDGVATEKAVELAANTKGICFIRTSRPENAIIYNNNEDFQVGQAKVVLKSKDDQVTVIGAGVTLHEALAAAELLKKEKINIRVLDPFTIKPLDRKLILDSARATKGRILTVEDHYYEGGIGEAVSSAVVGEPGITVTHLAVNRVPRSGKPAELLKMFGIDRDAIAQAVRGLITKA
Description: Determining Inhibition Constants of TPP Mimetics in Cell Free Assay (Purified TK apo Enzyme) Compounds scored as TPK1 substrates were then enzymatically converted to pyrophosphate and assessed for an ability to compete with TPP in inhibiting TK activity. The TK inhibition assay was carried out as follows. The pyrophosphorylation reaction mix consisted of 50 mM HEPES, 1 mM DTT, 1 mM MgCl2, pH 8.0, 1 to 10 mM thiamine analog, and 40 mM Mg-ATP. TKP1 (46.2 μg) was added in 10 μL aliquots every hour for 5 hours. The reaction mix was then incubated overnight at 4° C. TPK1 was removed by ultra-filtration using a 10,000 MWCO filter. The extent of reaction was monitored as described above. […] The above reaction mix (40 μL) was placed in a well of a Costar 3695 half-area plate and pre-incubated at room temperature for 30 min. It was then incubated for 2 minutes at 30° C. The reaction was initiated with the addition of 10 μL pentose phosphates (xylulose 5-phosphate and ribose 5-phosphate) with a final concentration of 0.5 mM. The reaction was monitored at 340 nm using a Molecular Devices Spectramax M2 plate reader. “TPK-TK” in the second column in Table 1 designates the thiamine pyrophosphate kinase/transketolase coupled reaction.

[2] = biological target: T2, transketolase (TK) in colon carcinoma HCT116 cells (Homo sapiens, UniProt P29401); experiment: Cellular transketolase inhibition assay in HCT116; format: cell-based; details: colon carcinoma HCT116, thiamine-free DMEM, 48 h after compound treatment, TK activity in lysate
T2 construct: endogenous in cells; host or cells: HCT116
T2 sequence (P29401 1-623): T1 sequence (P29401 1-623)
Description: Determining Inhibition Constants of TPP Mimetics in Cellular Assay
Log-phase cells were trypsinized, washed and resuspended in thiamine-free DMEM. Optimization of the initial cell counts was carried out for each cell line prior to IC50 measurements. […] Using this initial cell count, IC50 could be monitored for six days.
Media containing 8,000 cells (95 μl) were used to seed individual wells in a 96-well clear-bottom cell cultured-treated sterile plate. Inhibitor compounds were dissolved in 100% DMSO as 10 mM solutions. Serial dilutions were then made in 100% DMSO to make up a 100× stock, then diluted to 20× in double-deionized H2O (ddH2O). Twenty-four hours after seeding, 5 μl of 20× inhibitor compound stock solution was added to the cells so that the final concentration of DMSO was 1%. Media were changed after 24 hours. Forty-eight hours after inhibitor compound treatment, the plates were inverted to remove media and blotted on a paper towel. The plates were then either subjected to enzymatic reactions immediately or were frozen at −20° C. for future assays.
Lysis buffer (20 mM HEPES, pH 7.5, 1 mM EDTA, 0.2 g/l Triton X-100® and 0.2 g/L sodium deoxycholate, supplemented with 1 mM DTT and 1 mM PMSF just before use, 80 μl) were added to each well of the assay plate and allow cell lysis at RT with shaking. Then 15 ul of 5× assay buffer containing final concentrations of 50 mM HEPES, 40 mM KCl, 2.5 mM MgCl2, 5 mM NaArsenate, 1 mM NAD, 2 unit/ml glyceraldehyde-3-phosphate dehydrogenase (GAPDH) was added to the 80 ul of lysate. Reaction kinetics were monitored on a fluorescent plate reader to allow any possible background activity via GAPDH to burn out. Then 5 ul of substrate mix containing final concentrations of 0.5 mM ribose-5-phosphate and 0.5 mM xylulose-5-phosphate was added to initiate the reaction. Monitor reaction kinetics were monitored using a fluorescent plate reader and the slope of the initial linear range was recorded as the velocity of the reaction (FU/min). Enzymatic inhibition was expressed as percent of control wells that were not treated with compounds. The values (y) were plotted as function of the log concentration (x) and fitted to a sigmoidal dose-response curve with variable slopes that bears the equation: y-bottom+(top-bottom)/(1+10̂((log EC50−x)*hillslope)).

`Cc1c(CCO)sc[n+]1Cc1ccccc1` was tested, and the IC50 [1] was 336 nM and the IC50 [2] was > 100000 nM.
`Cc1c(CCO)sc[n+]1Cc1ccccc1[N+](=O)[O-]` was tested, and the IC50 [1] was 109 nM and the IC50 [2] was > 100000 nM.
With `Cc1c(CCO)sc[n+]1Cc1ccccc1N` the IC50 [1] was 198 nM and the IC50 [2] was > 100000 nM.
`Cc1c(CCO)sc[n+]1Cc1cc([N+](=O)[O-])ccc1O` was tested, and the IC50 [2] was > 100000 nM.
In the case of `Cc1c(CCO)sc[n+]1Cc1ccc(C(=O)O)cc1`, the IC50 [2] is reported as > 100000 nM.
`CC(=O)Nc1ccc(C[n+]2csc(CCO)c2C)cc1` was tested, and the IC50 [1] was 8.83 nM and the IC50 [2] was 24300 nM.
For `Cc1c(CCO)sc[n+]1Cc1ccccn1`, the IC50 [2] was > 100000 nM.
In the case of `Cc1c(CCO)sc[n+]1Cc1cccc(N2C(=O)c3ccccc3C2=O)n1`, the IC50 [2] is reported as > 100000 nM.
`Cc1c(CCO)sc[n+]1Cc1cccnc1` was tested, and the IC50 [1] was 70.7 nM and the IC50 [2] was 731 nM.
`Cc1c(CCO)sc[n+]1Cc1cccnc1N` showed an IC50 [1] of 36.5 nM and an IC50 [2] of 111 nM.
In the case of `Cc1c(CCO)sc[n+]1Cc1cccnc1C#N`, the IC50 [1] is reported as 123 nM and the IC50 [2] is reported as > 33000 nM.
With `Cc1c(CCO)sc[n+]1Cc1ccc(C(F)(F)F)nc1N` the IC50 [1] was 104 nM and the IC50 [2] was 119 nM.
In the case of `Cc1c(CCO)sc[n+]1Cc1ccc(Cl)nc1N`, the IC50 [2] is reported as 156 nM.
Work on `Cc1cnc(N)c(C[n+]2csc(CCO)c2C)c1` yielded an IC50 [1] of 109 nM and an IC50 [2] of 862 nM.
Work on `Cc1c(CCO)sc[n+]1Cc1ccc(C(F)(F)F)nc1` yielded an IC50 [1] of 387 nM and an IC50 [2] of 471 nM.
For `Cc1c(CCO)sc[n+]1Cc1ccc(N)nc1`, the IC50 [1] was 6.95 nM and the IC50 [2] was 1610 nM.
`Cc1c(CCO)sc[n+]1Cc1ccc(N2C(=O)c3ccccc3C2=O)nc1` was tested, and the IC50 [1] was 143 nM and the IC50 [2] was 3150 nM.
`Cc1cncc(C[n+]2csc(CCO)c2C)c1` gave an IC50 [2] of 37800 nM.
In the case of `Cc1c(CCO)sc[n+]1Cc1cncc(C#N)c1`, the IC50 [1] is reported as 294 nM and the IC50 [2] is reported as 119000 nM.
For `COC(=O)c1cncc(C[n+]2csc(CCO)c2C)c1`, the IC50 [1] was 382 nM and the IC50 [2] was > 100000 nM.
With `Cc1c(CCO)sc[n+]1Cc1cnccc1N` the IC50 [1] was 64.2 nM and the IC50 [2] was 23900 nM.
In the case of `Cc1ccc(C[n+]2csc(CCO)c2)c(N)n1`, the IC50 [1] is reported as 29.1 nM and the IC50 [2] is reported as 9540 nM.
For `Cc1ccc(C[n+]2csc(CCO)c2C)c(N)n1`, the IC50 [1] was 22 nM and the IC50 [2] was 30 nM.
`CC(=O)OCCc1sc[n+](Cc2ccc(C)nc2N)c1C` gave an IC50 [2] of 6 nM.
`CCc1ccc(C[n+]2csc(CCO)c2C)c(N)n1` gave an IC50 [2] of 74 nM.
In the case of `Cc1c(CCO)sc[n+]1Cc1ccc(C#N)nc1N`, the IC50 [1] is reported as 57.1 nM and the IC50 [2] is reported as 354 nM.
`Cc1cc(C)c(C[n+]2csc(CCO)c2)c(N)n1` gave an IC50 [2] of 12500 nM.
`Cc1cc(C)c(C[n+]2csc(CCO)c2C)c(N)n1` gave an IC50 [1] of 33.8 nM and an IC50 [2] of 131 nM.
`CC(=O)Nc1ccc(C[n+]2csc(CCO)c2C)c(N)n1` showed an IC50 [1] of 22.5 nM and an IC50 [2] of 803 nM.
`COc1ccc(C[n+]2csc(CCO)c2C)c(NC(C)=O)n1` showed an IC50 [2] of 170000 nM.
`Cc1ccc(C[n+]2cc(CCO)sc2C)c(N)n1` showed an IC50 [1] of 35.6 nM and an IC50 [2] of 489 nM.
Compound `Cc1cc(C)c(C[n+]2cc(CCO)sc2C)c(N)n1` has an IC50 [2] of 26300 nM.
In the case of `CCc1sc(CCO)c(C)[n+]1Cc1ccc(C)nc1N`, the IC50 [1] is reported as 75.5 nM and the IC50 [2] is reported as 26 nM.
Compound `Cc1ccc(C[n+]2c(C(C)O)sc(CCO)c2C)c(N)n1` (stereo not shown) has an IC50 [1] of 91.4 nM and an IC50 [2] of 34 nM.
In the case of `Cc1ccc(C[n+]2c(-c3ccc4c(c3)OCO4)sc(CCO)c2C)c(N)n1`, the IC50 [2] is reported as 25500 nM.
For `Cc1ccc(C[n+]2c(Cc3cccnc3)sc(CCO)c2C)c(N)n1`, the IC50 [2] was 838 nM.
`CCc1c(CCO)sc[n+]1Cc1ccc(C)nc1N` gave an IC50 [2] of 1720 nM.
With `Cc1ccc(C[n+]2csc(CCO)c2CO)c(N)n1` the IC50 [1] was 25.1 nM and the IC50 [2] was 236 nM.
`Cc1ccc(C[n+]2c(C)sc(CO)c2C)c(N)n1` gave an IC50 [2] of 237 nM.
Compound `Cc1ccc(C[n+]2csc(C(O)CO)c2C)c(N)n1` (stereo not shown) has an IC50 [1] of 53.4 nM and an IC50 [2] of 269 nM.
Compound `Cc1ccc(C[n+]2csc([C@@H](O)CO)c2C)c(N)n1` has an IC50 [1] of 26.8 nM and an IC50 [2] of 2200 nM.
`Cc1ccc(C[n+]2csc([C@H](O)CO)c2C)c(N)n1` was tested, and the IC50 [1] was 28.1 nM and the IC50 [2] was 62 nM.
For `Cc1cc(C)c(C[n+]2csc(C(O)CO)c2C)c(N)n1` (stereo not shown), the IC50 [1] was 90 nM and the IC50 [2] was 3160 nM.
`Cc1ccc(C[n+]2csc(CCCO)c2C)c(N)n1` was tested, and the IC50 [2] was 1030 nM.
`Cc1ccc(C[n+]2csc(CCC#N)c2C)c(N)n1` gave an IC50 [2] of 2170 nM.
`COC(=O)CCc1sc[n+](Cc2ccc(C)nc2N)c1C` showed an IC50 [2] of 2330 nM.
`Cc1c(CCO)sc[n+]1Cc1ccncc1` was tested, and the IC50 [1] was 421 nM and the IC50 [2] was > 100000 nM.
In the case of `Cc1c(CCO)sc[n+]1Cc1cncnc1`, the IC50 [1] is reported as 1430 nM and the IC50 [2] is reported as > 100000 nM.
`Cc1ncc(C[n+]2c(C)sc(CCO)c2C)c(N)n1` gave an IC50 [2] of 214 nM.
`Cc1ncc(C[n+]2c(C(C)O)sc(CCO)c2C)c(N)n1` (stereo not shown) was tested, and the IC50 [1] was 851 nM and the IC50 [2] was > 100000 nM.
`COc1ncc(CO)c(N)n1` was tested, and the IC50 [2] was > 100000 nM.
`Cc1ncc(C[n+]2csc(CCO)c2C)c(=O)[nH]1` showed an IC50 [2] of 76 nM.
In the case of `Cc1c(CCO)sc[n+]1Cc1nccnc1N`, the IC50 [1] is reported as 61.2 nM and the IC50 [2] is reported as 16500 nM.
Work on `Cc1cnc(C[n+]2csc(CCO)c2C)c(N)n1` yielded an IC50 [1] of 15.2 nM and an IC50 [2] of 408 nM.
`Cc1cc(C[n+]2csc(CCO)c2C)no1` gave an IC50 [2] of 5150 nM.
With `Cc1c(CCO)sc[n+]1Cc1ccsc1C#N` the IC50 [1] was 138 nM and the IC50 [2] was > 33000 nM.
`Cc1c(CCO)sc[n+]1Cc1ccsc1C(N)=O` was tested, and the IC50 [2] was > 33000 nM.
`Cc1ccc(C[n+]2c(C)sc(CCO)c2C)c(N)n1` [drawing 48] was tested, and the IC50 [2] was 31 nM.
With `Cc1ccc(C[n+]2c(C)sc(CCO)c2C)c(N)n1` [drawing 55] the IC50 [1] was 24.6 nM and the IC50 [2] was 49 nM.
